ChEMBL document CHEMBL1130761, “Synthesis of 2,3,4a,11b-tetrahydro-oxazino[2,3-c]benzopyran-9-carbonitriles as ATP-sensitive potassium channel openers” (Bioorg Med Chem Lett, 1998)

What was measured:
Type in all cases: functional
Rattus norvegicus [1] = organism: Rattus norvegicus; assay: Mechanoinhibitory activity was evaluated by spontaneous contraction of rat portal vein; + indicates enhancement in spontaneous contraction was observed
Rattus norvegicus [2] = organism: Rattus norvegicus; assay: Mechanoinhibitory activity in presence of Glibenclamide (1 uM) was evaluated in KCl stimulated rat detrusor strip
Rattus norvegicus [3] = organism: Rattus norvegicus; assay: Mechanoinhibitory activity was evaluated in KCl stimulated rat detrusor strip
Rattus norvegicus [4] = organism: Rattus norvegicus; assay: Mechanoinhibitory activity in presence of Glibenclamide (1 uM) was evaluated by spontaneous contraction of rat portal vein.
Rattus norvegicus [5] = organism: Rattus norvegicus; assay: Mechanoinhibitory activity was evaluated by spontaneous contraction of rat portal vein.
[6] = Mechanoinhibitory activity was evaluated by the ratio of IC50(portal vein)/IC50(bladder)
Rattus norvegicus [7] = organism: Rattus norvegicus; assay: Mechanoinhibitory activity (bladder-selective potassium channel opening activity) was evaluated in KCl stimulated rat detrusor strip

| SMILES | Effect on spontaneous contraction (Rattus norvegicus [1]) | IC50 (Rattus norvegicus [2]) [µM] | IC50 (Rattus norvegicus [3]) [µM] | IC50 (Rattus norvegicus [4]) [µM] | IC50 (Rattus norvegicus [5]) [µM] | Ratio [6] | IC50 (Rattus norvegicus [7]) [µM] |
| --- | --- | --- | --- | --- | --- | --- | --- |
| CC1(C)Oc2ccc(C#N)cc2[C@H]2NC(=O)CO[C@@H]21 | enhancement in spontaneous contraction | 56.3 | 53.1 |  |  |  |  |
| CC(=O)N1CCO[C@H]2[C@H]1c1cc(C#N)ccc1OC2(C)C |  | 153 | 70.1 | 79.3 | 5.9 | 0.08 |  |
| CCC(=O)N1CCO[C@@H]2[C@H]1c1cc(C#N)ccc1OC2(C)C |  | 141 | 51.8 | 52.6 | 20.1 | 0.39 |  |
| CC(C)C(=O)N1CCO[C@H]2[C@H]1c1cc(C#N)ccc1OC2(C)C |  | 244 | 104 |  | 127 | 1.22 |  |
| CC1(C)Oc2ccc(C#N)cc2[C@@H]2[C@@H]1OCC(=O)N2Cc1ccccc1 | enhancement in spontaneous contraction | 130 | 68.2 |  |  |  |  |
| CC(C)C(=O)N1CCO[C@@H]2[C@H]1c1cc(C#N)ccc1OC2(C)C |  | 268 | 56.4 | 58.9 | 18.4 | 0.33 |  |
| CC1(C)Oc2ccc(C#N)cc2[C@@H]2[C@@H]1OCCN2C=O | enhancement in spontaneous contraction | 158 | 152 |  |  |  |  |
| CC1(C)Oc2ccc(C#N)cc2[C@@H]2[C@H]1OCCN2C=O |  | 279 | 51.8 | 117 | 62.8 | 1.21 |  |
| CC1(C)Oc2ccc(C#N)cc2[C@@H]2[C@H]1OCCN2C(=O)c1ccccc1 |  | 32.8 |  | 45.5 | 34.5 | 4.23 | 8.15 |
| CC(=O)N1CCO[C@@H]2[C@H]1c1cc(C#N)ccc1OC2(C)C |  | 53.2 | 8.8 | 60.9 | 2.7 | 0.31 |  |
| CC1(C)Oc2ccc(C#N)cc2[C@@H]2[C@@H]1OCCN2C(=O)c1ccccc1 | enhancement in spontaneous contraction | 123 | 66 |  |  |  |  |
| CN1C(=O)CO[C@H]2[C@H]1c1cc(C#N)ccc1OC2(C)C |  | 79.5 | 43.8 | 72.8 | 50.2 | 1.15 |  |
| CCC(=O)N1CCO[C@H]2[C@H]1c1cc(C#N)ccc1OC2(C)C |  | 318 | 47.2 | 92.6 | 64.9 | 1.38 |  |
| CC1(C)Oc2ccc(C#N)cc2[C@@H](N2CCCC2=O)[C@@H]1O [LEVCROMAKALIM] |  | 8.7 | 0.82 | 4.9 | 0.13 | 0.16 |  |
| CN1C(=O)CO[C@H]2[C@@H]1c1cc(C#N)ccc1OC2(C)C |  | 129 | 65.7 | 28.3 | 26.2 | 0.4 |  |
